Entries after “also recorded” stand apart in the source; their conditions may differ.
Tested on: Beta vulgaris (sugar beet) microspores
Experiment: Callus induction from isolated sugar beet microspores (microspore culture)
Assay type: cell-based
Settings: for callus induction potential in comparison to TSA: comparator TSA 5 μM, same time point, duration and buffer
From the text: The experimental set-up is detailed in the below Examples. In the Figures, each column represents a different genotype. […] Time point, duration and buffer used were always identical for all treatments in the different rows. The different rows thus only differ from each other in the kind of inhibitor used.
Bracteoles are cut off the inflorescence and buds bigger than 1.8 mm are removed. Remaining part is divided into smaller pieces, preferably pieces of 1-1.5 cm. Buds smaller than 1.8 mm contain typically microspores at the tetrad and uninuclear developmental stage, which are the optimal developmental stages for further progressing. However, it should be noted that due to broad variation of different genotypes and donor sources (e.g., monogerm and multigerm), the correlation between the maximum flower bud size and nuclear stages of the microspores needs to be established for each genotype individually. The determination of the nuclear stages is carried out using a fluorescence-based staining method. The method contains fixation of the cells for instances with Ethanol acetic acid and DAPI staining (Kim, Moon-Za, and In-Chang Jang. “Rapid Assessment of Microspore Development Stage in Pepper Using DAPI and Ferric chloride.” Journal of Plant Biotechnology 2.3 (2000): 129-134.).
The flower shoot segments are transferred to isolation buffer, e.g., in a blending device and 40 ml (isolation buffer, Table 1) is added. The Isolation buffer contains macro- and microsalts, amino acids, monosaccharides and one or more complex protein compositions, pH is adjusted to pH 7.5. The complex protein composition or its source comprises preferably hydrolysed or partially hydrolysed protein matter or protein source. It can derive from any source that is known or that be applicable in addition, such as milk (such as, casein, whey), animal (such as, meat, fish), cereal (such as, rice, corn), plant (such as, soybean) or its combination. This proteinoid comprises milk protein isolates, as described herein lactoprotein concentrate, casein isolates, casein hydrolysate, lactalbumin, casein-sodium or calcium caseinate, full cow's milk, partially or completely skimmed milk, soy protein isolate, soybean protein concentrate etc. In one embodiment, complex protein composition comprises the protein source of the milk protein deriving from bovine milk.
The material is homogenized, e.g., by means of a homogenizer such as a Waring blender or sonication device at around 3000 rpm for 1 min. The crude cell suspension is passed stepwise through cell strainers of pore sizes between 25 μm and 100 μm. The purified suspension is transferred into tubes for subsequent centrifugation at ˜200 g for 3 min.
The supernatant is removed and the pellet is resuspended in a suitable amount of isolation buffer. An aliquot of the cell solution is taken for evaluation of the number of cells per ml by means of a counting chamber. Cell density is adjusted preferably to a cell density of 25,000 to 500,000 cells with TM media.
If the HDACi trichostatin A (TSA) is used, it is dissolved in dimethylsulfoxide (DMSO) to a final concentration of between 1 nM and 10 μM, preferably 100 nM to 10 μM, more preferably 1 μM to 10 μM, depending on the genotype and the donor sources (e.g., monogerm and multigerm). Other non-limiting examples of HDACi which may be used belong to the class of hydroxamic acids and hydroxamates, such as vorinostat (SAHA), belinostat (PXD101), LAQ824, and panobinostat (LBH589). Other non-limiting examples of HDACis for use according to the invention include cyclic tetrapeptides (such as trapoxin B) and depsipeptides, such as romidepsin (FK228), benzamides such as entinostat (MS-275), C1994, and mocetinostat (MGCD0103), electrophilic ketones, and aliphatic acid compounds such as phenylbutyrate and valproic acid.
After 1 to 10 days incubation at 32° C. the TSA is removed by centrifugation preferably at ˜200 g.

## CC(/C=C/C(=O)NO)=C\[C@@H](C)C(=O)c1ccc(N(C)C)cc1 [TSA, trichostatin A]
TSA 5 μM, six genotypes, positive control of FIG. 4 to FIG. 7
  callus induction: strong callus induction in all six genotypes
TSA in the lower μM or even nM range and in higher concentrations, data not shown
  callus induction performance at other concentrations: performed well
  callus induction potential in comparison to TSA: performed best

## CC(=O)N1c2ccc(-c3ccc(C(=O)O)cc3)cc2[C@H](Nc2ccc(Cl)cc2)C[C@@H]1C [I-Bet 726]
I-Bet 726 1 μM, 2.5 μM and 5 μM, FIG. 7
  callus induction: No callus induction

## Cc1sc2c(c1C)C(c1ccc(Cl)cc1)=N[C@@H](CC(N)=O)c1nnc(C)n1-2 [CPI-203]
CPI-203 1 μM, 2.5 μM and 5 μM, 6 genotypes, FIG. 6
  callus induction: slight positive effect; also recorded: very small, but positive, effect
  callus induction potential in comparison to TSA: performed worse than TSA

## O=C(CCCCCCC(=O)Nc1ccccc1)NO [SAHA, vorinostat]
SAHA 1 μM and 5 μM vs TSA 5 μM, microspore culture
  toxicity in comparison to TSA: more toxic
SAHA 1 μM and 5 μM, same buffer as TSA, six genotypes, FIG. 4
  callus induction: good effect on some genotypes
  callus induction potential in comparison to TSA: less effective than TSA
